Tests used:
Type in all cases: in vivo, human
[1] = test system: central memory T cells; experiment: Cultured IFN-γ ELISPOT after 10-day in vitro stimulation of PBMC, phase 1/2 NSCLC trial of OSE-2101; design: key to net SFC of vaccine positive CTL responses: —, indicates SFC response did not meet criteria and vaccine response was negative; settings: for Mean SFC / No. Positive Responses: 6 NSCLC patients
Procedure: (§1) Clinical study design. Both trials were designed as phase 1/2, open label, multi-center, single dose, multiple administration studies to evaluate the safety and immunogenicity of the OSE-2101 immunotherapy. Patients were treated with 1 ml OSE-2101 every 3 weeks for a total of six doses. Each dose was administered subcutaneously in the same vicinity in the deltoid or upper thigh region, or at a contralateral site if local side-effects were observed. The study duration for each completed patient was 18 weeks. Clinical responses or patient survival were not measured in either phase 1/2 studies.
(§2) Clinical sample processing. Blood or leukapheresis product was obtained from patients at the pre-treatment, the Week 9 and Week 18 time points, 3 weeks after the third and sixth dose of OSE-2101 respectively. Peripheral blood mononuclear cells (PBMC) were isolated from samples within 24 hours of collection using a FICOLL-PAQUE density gradient and cryopreserved in containers designed to ensure optimal freezing (Mr. Frosty, Nalgene). For use, cells were rapidly thawed at 37° C. then transferred to human AB serum-containing medium for work-up.
(§3) Measurement of central T memory cells responses and T effector memory cells. The CTL responses in 16 total patients (10 colon and six NSCLC) were monitored for CTL responses against each epitope and against the wild-type epitope of epitopes analogs. For each patient, the pre-treatment, Week 9 and Week 18 time points were batch-tested in the same experiment to allow pre- versus post-treatment response comparison in the same experiment. Central T memory cells responses were measured using an IFN-γ enzyme-linked immunospot (cultured ELISPOT) assay following in vitro stimulation of PBMC for 10 days with each vaccine epitope. Briefly, PBMC from each time point were stimulated on day 0 with 10 μg/ml of each epitope individually in replicate in 48-well culture plates (2×10^6 PBMC/well). All cultures were fed with rIL-2 (Endogen, Woburn, Mass.; 10 U/ml final concentration) on days 1, 4 and 7. Ten days after initiation of culture, cells were harvested and tested for activity against specific vaccine peptides and corresponding wild-type peptides of vaccine analogs in the T memory ELISPOT assay. Cells were tested in Millipore IP 96-well plates pre-coated with mouse anti-human IFN-γ antibody (Mabtech USA, Cincinnati, Ohio). Five×10^4 cells and 1.25×10^4 cells from each culture were plated in triplicate wells together with 10^5 irradiated autologous PBMC and 10 μg/ml peptide. As a control, CTL were also tested against an irrelevant HLA-A2.1-binding HBV peptide. After 20 hours incubation, T memory ELISPOT plates were developed by performing sequential incubations with biotinylated anti-human IFN-γ antibody (Mabtech USA), Avidin-Peroxidase Complex (APC, Vector Laboratories, Burlingame, Calif.), and 3-amino-9-ethyl carbazole (AEC) substrate (Sigma Aldrich, St. Louis, Mo.). Spot-forming cells (SFC) were enumerated using a computer-assisted image analysis system (Zeiss KS ELISPOT Reader, Carl Zeiss MicroImaging, Thornwood, N.J.). Data is reported as the net SFC per 5×10^4 cells after subtracting spots induced with the irrelevant HBV peptide.

[2] = test system: central memory T cells; experiment: Central memory T cell cultured ELISPOT, phase 2 trial in advanced NSCLC
Procedure: CTL Immune responses measured though cultured Elispot. The immunogenicity was measured in Phase 2 clinical trial on cryopreserved PBMC from each test sample were thawed in 5% human culture medium (RPMI-1640 medium with 25 mM HEPES, supplemented with 5% human AB serum, 4 mM L-glutamine, 0.5 mM sodium pyruvate, 0.1 mM MEM non-essential amino acids, 100 μg/ml streptomycin, and 100 U/ml penicillin) containing 30 μg/ml DNAase. After centrifugation for 5 minutes at 1200 rpm, the cell pellets were resuspended in 5% human culture medium and washed 2 times. For the central Memory T cell cultured ELISPOT assay, 2×10^6/ml PBMC were placed in replicate wells in a 48-well plates and stimulated for 10 days with 10 μg/ml of each peptide. As a positive control, PBMC were also stimulated with a pool of recall viral peptides. Human rIL2 (10 U/ml) was added to the peptide-stimulated cultures at day 1, day 4 and day 7. After 10 days the stimulated cells were harvested and plated at a concentration of 5×10^4/well. Assay wells also received irradiated autologous PBMC (1×10^5/well) and 10 μg/ml peptide, either the vaccine peptide, irrelevant peptide or positive control peptides. Cells stimulated in vitro with each analog epitope were also tested against the corresponding wild-type epitope.
Data analysis and acceptance criteria. Mean and standard deviation (SD) of spots in replicate wells were calculated in all assays by transferring raw ELISPOT data from each experiment to an Excel-based computer program. Positive vaccine-induced T-cell responses were determined according to the criteria described below.
Acceptance Criteria for peptide-Induced specific T-cell response through central memory T cells: The positive criteria for CTL responses used in the phase 2 trial was identical to the criteria in the phase 1/2 trials which was established prospectively after analyzing the variability of pre-treatment responses in patients against each vaccine epitope and the irrelevant HBV control epitope. A positive peptide-induced CTL/T memory response to a given epitope met all of the following conditions: 1) was greater than 5 SFC above the irrelevant epitope response, 2) was greater than the mean SFC of the irrelevant epitope response, plus 2 SD, and 3) was two-fold greater than the SFC response in the pre-vaccination sample from the same patient, plus 2 SD. The inclusion of “plus two standard deviations” was used to accommodate the assay variability and served to increase the criteria stringency.

[3] = test system: central memory T cells; experiment: Cultured IFN-γ ELISPOT after 10-day in vitro stimulation of PBMC, phase 1/2 colon cancer trial of OSE-2101; design: key to net SFC of vaccine positive CTL responses: —, indicates SFC response did not meet criteria and vaccine response was negative; settings: for Mean SFC: 10 colon patients
Procedure: as §1, §2, §3

## KLBPVQLWV [p53.139L2B3 A]
[1]; Week 9
  Mean SFC: 25.9 SFC per 50,000 cells
  No. Positive Responses: 3
[1]; Week 18
  Mean SFC: 62.0 SFC per 50,000 cells
  No. Positive Responses: 4
[1]; NSCLC patient 201, Week 9
  net SFC of vaccine positive CTL responses: —
[1]; NSCLC patient 201, Week 18
  net SFC of vaccine positive CTL responses: —
[1]; NSCLC patient 502, Week 9
  net SFC of vaccine positive CTL responses: —
[1]; NSCLC patient 502, Week 18
  net SFC of vaccine positive CTL responses: —
[1]; NSCLC patient 504, Week 9
  net SFC of vaccine positive CTL responses: 18.7 SFC per 50,000 cells
[1]; NSCLC patient 504, Week 18
  net SFC of vaccine positive CTL responses: 90.3 SFC per 50,000 cells
[1]; NSCLC patient 505, Week 9
  net SFC of vaccine positive CTL responses: —
[1]; NSCLC patient 505, Week 18
  net SFC of vaccine positive CTL responses: 20.3 SFC per 50,000 cells
[1]; NSCLC patient 532, Week 9
  net SFC of vaccine positive CTL responses: 53.0 SFC per 50,000 cells
[1]; NSCLC patient 532, Week 18
  net SFC of vaccine positive CTL responses: 117.3 SFC per 50,000 cells
[1]; NSCLC patient 651, Week 9
  net SFC of vaccine positive CTL responses: 6.0 SFC per 50,000 cells
[1]; NSCLC patient 651, Week 18
  net SFC of vaccine positive CTL responses: 20.0 SFC per 50,000 cells
[2]; phase 2, month 9
  % of patients with positive CTL/central memory T cell response: 29%
  patients with positive CTL/central memory T cell response / patients tested: 2/7
[2]; phase 2, month 12
  % of patients with positive CTL/central memory T cell response: 50%
  patients with positive CTL/central memory T cell response / patients tested: 2/4
[2]; phase 2, week 9
  % of patients with positive CTL/central memory T cell response: 55%
  patients with positive CTL/central memory T cell response / patients tested: 6/11
[2]; phase 2, week 18
  % of patients with positive CTL/central memory T cell response: 36%
  patients with positive CTL/central memory T cell response / patients tested: 4/11
[2]; phase 2, week 30
  % of patients with positive CTL/central memory T cell response: 50%
  patients with positive CTL/central memory T cell response / patients tested: 3/6
[3]; Week 9
  Mean SFC: 70.5 SFC per 50,000 cells
[3]; Week 18
  Mean SFC: 89.4 SFC per 50,000 cells
[3]; colon patient 551, Week 9
  net SFC of vaccine positive CTL responses: —
[3]; colon patient 551, Week 18
  net SFC of vaccine positive CTL responses: —
[3]; colon patient 601, Week 9
  net SFC of vaccine positive CTL responses: 129.0 SFC per 50,000 cells
[3]; colon patient 601, Week 18
  net SFC of vaccine positive CTL responses: 96.0 SFC per 50,000 cells
[3]; colon patient 602, Week 9
  net SFC of vaccine positive CTL responses: —
[3]; colon patient 602, Week 18
  net SFC of vaccine positive CTL responses: 22.7 SFC per 50,000 cells
[3]; colon patient 603, Week 9
  net SFC of vaccine positive CTL responses: 85.3 SFC per 50,000 cells
[3]; colon patient 603, Week 18
  net SFC of vaccine positive CTL responses: —
[3]; colon patient 604, Week 9
  net SFC of vaccine positive CTL responses: 41.0 SFC per 50,000 cells
[3]; colon patient 604, Week 18
  net SFC of vaccine positive CTL responses: 188.7 SFC per 50,000 cells
[3]; colon patient 605, Week 9
  net SFC of vaccine positive CTL responses: 9.7 SFC per 50,000 cells
[3]; colon patient 605, Week 18
  net SFC of vaccine positive CTL responses: 44.7 SFC per 50,000 cells
[3]; colon patient 606, Week 9
  net SFC of vaccine positive CTL responses: 43.7 SFC per 50,000 cells
[3]; colon patient 606, Week 18
  net SFC of vaccine positive CTL responses: 37.7 SFC per 50,000 cells
[3]; colon patient 607, Week 9
  net SFC of vaccine positive CTL responses: 114.3 SFC per 50,000 cells
[3]; colon patient 607, Week 18
  net SFC of vaccine positive CTL responses: 146.7 SFC per 50,000 cells
[3]; colon patient 608, Week 9
  net SFC of vaccine positive CTL responses: —
[3]; colon patient 608, Week 18
  net SFC of vaccine positive CTL responses: —
[3]; colon patient 609, Week 9
  net SFC of vaccine positive CTL responses: —
[3]; colon patient 609, Week 18
  net SFC of vaccine positive CTL responses: —

## RLLQETELV [HER2-689-WT]
[2]; phase 2, month 9
  % of patients with positive CTL/central memory T cell response: 0%
  patients with positive CTL/central memory T cell response / patients tested: 0/7
[2]; phase 2, month 12
  % of patients with positive CTL/central memory T cell response: 0%
  patients with positive CTL/central memory T cell response / patients tested: 0/4
[2]; phase 2, week 9
  % of patients with positive CTL/central memory T cell response: 36%
  patients with positive CTL/central memory T cell response / patients tested: 4/11
[2]; phase 2, week 18
  % of patients with positive CTL/central memory T cell response: 27%
  patients with positive CTL/central memory T cell response / patients tested: 3/11
[2]; phase 2, week 30
  % of patients with positive CTL/central memory T cell response: 0%
  patients with positive CTL/central memory T cell response / patients tested: 0/6
